Laboratory results as given in patent EP1276895B1, “METHOD FOR THE IDENTIFICATION OF ACTIVE SITE PROTEASE INACTIVATORS” (THE UNIVERSITY OF GEORGIA RESEARCH FOUNDATION, INC., priority 2000, dated 2001).
Residues, ends and D or L forms follow the SMILES beside them. *: point of attachment. AFC = O=c1cc(C(F)(F)F)c2ccc(N*)cc2o1; MeOSuc = COC(=O)CCC(=O)*; Cbz = O=C(OCc1ccccc1)*

Key:
[1] = test system: purified Taenia solium cysteine protease; experiment: Substrate cleavage screen of AFC-linked synthetic substrates (Step II), purified protease; type: biochemical; settings: 1 ug purified protease, 1 ug substrate, Citrate pH 4.9 with 0.01 M cysteine, 18 h, 37 °C
Procedure: In this step, the most efficacious substrate for detection of the cysteine protease (high Kcat substrate) was determined in vitro along with those substrates which were not well cleaved (low kcat substrates). From this point forth, the following conditions refer to all assays: "assay buffer" refers to 0.4 M Citrate, pH 4.9 (the pH optima of the protease). Incubation time was 18 hours at 37°C. These conditions were determined by our preliminary data to be best for kinetic evaluation of the protease. […] The experiments were conducted in […] Borosilicate mini-culture tubes (Fisher Scientific), and a fluorometer (Turner) was employed for detection of AFC cleavage.
Approximately 1 ug (or a proteolytically detectable amount) of the purified target cysteine protease was incubated individually, with 1 ug of each of the available substrates in 500 uL of assay buffer. During this setup, the substrate was pre-incubated in the assay buffer for a short period of time (20 minutes) in order to reach an equilibrated status before the addition of the protease. Cleavage assessments were based upon the property of the protease to cleave synthetic peptide substrates linked at the C-terminus to 7-Amino-4-Trifluoromethyl Coumarin (AFC) as previously described. AFC linked tripeptides, dipeptides, and monopeptides, (with a variety of permutations at P3-P1) were available from Enzyme Systems Products (Livermore, CA), and were used as the source of the subset. Following incubation of enzyme preparations overnight (18 h, 37 °C) with peptide in assay buffer (Citrate, pH 4.9, supplemented with 0.01 M cysteine), free AFC concentrations were measured fluorometrically (excitation 405 nm, emission 505 nm). The proteolytic cleavage released the AFC group, which was measurable as a free molecule by a standard fluorometer and converted into molar quantities, based upon a previously established standard curve. The simplicity of AFC detection by the fluorometer was a key factor which quickened and simplified the procedures.
In the assay, 1 ug of the purified Taenia cysteine protease was added to a saturating amount of Z-Phe-Arg-AFC (4X10^-5 M) in assay buffer. The experiment was conducted in triplicate and repeated at least 5 times until we were certain that variability in AFC cleavage was not statistically significant.
Vmax was calculated for the cleavage of substrates by the purified target protease and Vmax was calculated for substrates cleaved by the crude mix protease using conventional kinetic modeling calculations already described in the art.

[2] = test system: purified Taenia solium cysteine protease; experiment: Competitor assay of low Vmax substrates (vehicles) against high Vmax substrate cocktails (Step III), purified protease; type: biochemical; settings: purified protease; for inhibition in the presence of the 1.4% cocktail: 1.4% cocktail = Z-FR-AFC 1X10^-6M; for inhibition with the final cocktail (7.4%): 7.4% cocktail = Z-FR-AFC + Z-FAR-AFC + Z-AAK-AFC + AP-AFC + Z-VLR-AFC, 1X10^-6 M each, vehicle 8X10^-6 M
Procedure: (We employed "Vmax" here although Kcat could also be used). Due to the lower number of substrates, a percentage was not chosen for the "BOTTOM %" " substrates. Alternately, all substrates which were not cleaved as determined by a value of 10 uM/hr or less, were chosen to be tested in this step for competitive ability. From this point forth, the term "vehicle" will represent low Vmax substrates that were capable of inhibiting cleavage of the percent cocktails. In this instance, we tested for "vehicles" which inhibited cleavage of the TOP 1.4% cocktail (they were delivered into the active site). Based upon our results from Step II, the top 1.4% cocktail was composed of Z-Phe-Arg-AFC, the highest cleaved substrate.
(§1) The experiment began with a competitor test between the noncleaved low Vmax substrates and the highest Vmax substrate, Z-Phe-Arg-AFC. Concentrations were varied between the low Vmax substrate and Z-Phe-Arg-AFC, as described above under "refinement of assay" until a relative inhibition profile was obtained.
The mixture was allowed to equilibrate for a period of 30 minutes. Finally, active purified enzyme was added to the tubes at a concentration which was always 50 times less than the concentration of the high and low Vmax substrates, in order to insure saturation conditions. This concentration varied from purification to purification and the amount added depended upon the yield and specific activity of the purified protease.
Positive controls were set up similarly as described for test controls, except that solvent was added in substitution for the low Vmax substrate (in a volume equal to the low Vmax volume addition). All of the substrates could be dissolved in dimethylsulfoxide (DMSO), and therefore, this was the solvent of choice. Negative controls were set up by adding the low Vmax and the high Vmax substrate in a tube without the protease. All potential non-proteolytic induced liberation of AFC was therefore controlled for in this tube (a feature which also insured stability of the AFC substrates, since these substrates will freely liberate AFC when unstable). A tube set will be established for this negative control.
All controls were set up in triplicate, and experiments repeated a minimum of five times. The assays were incubated at 37°C, for 18 hours overnight.
(§2) Percent inhibition was calculated as: %Inhibition =; ((AFC positive for"Y"-AFC negative for"Y")-(AFC test-AFC negative for"Y")X100)/(AFC positive for "Y"-AFC negative for "Y") [formula]
A 2.9% cocktail of the high Vmax substrates was made. This was composed of Z-FR-AFC and the second most cleaved substrate, Z-FAR-AFC. The vehicles promoted from the initial screenings above were again tested for competitive inhibition ability with the new cocktails. Their concentrations were set identically to those which were "fixed" in the previous protocols. In other words, 8X10^-6M of the vehicle was added to the culture tube with 1X10^-6 M of Z-FR-AFC and 1X10^-6 M of Z-FAR-AFC. Active protease was added last at a concentration that was 50 times less than the concentration of the high Vmax substrate (to ensure saturating conditions).
In similar experimental fashion, a 4.4%, 5.9%, and 7.4% cocktail were tested with each of the promising vehicles. Each percentage point represented an increase by one substrate. Each of the individual components in the cocktail were added at 1X10^-6 M each, to 8X10^-6 M of the vehicle. The composition of the cocktails was as follows: 4.4% cocktail: Z-FR-AFC, Z-FAR-AFC, and Z-AAK-AFC (third highest cleaved substrate); 5.9% cocktail: Z-FR-AFC, Z-FAR-AFC, Z-AAK-AFC, and AP-AFC (fourth highest cleaved substrate); 7.4% cocktail: […], Z-FAR-AFC, Z-AAK-AFC, AP-AFC, and Z-VLR-AFC. We stopped at this number of substrates in the cocktail, since confidence was obtained that inhibitory potential of vehicles could be "diluted out."
Finally, a manageable set of candidate vehicles was determined. […]

[3] = test system: purified Taenia solium cysteine protease; experiment: Inhibition assay of protease inactivators against the high Vmax cocktail, EC100 and Ki ranking (Step VII B); type: biochemical
Source text: Once the protease inactivators were synthesized in the organic laboratory, they were to be tested for the lowest efficacious concentrations at which they induced 100% inhibition of the target protease (EC100). The top percent cocktail that was employed in the final vehicle selection step of Step III was employed as the source of competition for the inhibitors. In this case, this was the […] which was comprised of Z-FR-AFC, Z-FAR-AFC, Z-AP-AFC, Z-AAK-AFC, and Z-VLR-AFC. The final result would be a ranking of transition state candidate protease inactivators with a high ranking directly correlating to a low EC100 value. The following steps describe the assay:
Step A: Initial Screening. To set up the test control, each protease inactivator was first incubated with the […] (which provided the final differentiation of vehicles in Step III). To begin with, the protease inactivator was incubated at a concentration of 3 X 10^-9M in 500 ul of assay buffer ([…], pH 4.9 supplemented with 10mM L-cysteine). This concentration was determined, after a series of inhibitor dilutions identified, to be the best inhibitor concentration at which a differentiation in inhibitor potential could be noted. Next, a concentration equal to 4 X 10^-5M for each of the individual cocktail components, was added to the mix. The components were allowed to equilibrate for a period of 30 minutes. Finally, active purified enzyme was added to the tubes at a concentration which was always at least 50 times less than the concentration of the lowest concentration in the mix (to provide saturating conditions.) This concentration varied from purification to purification and the amount added depended upon the yield and specific activity of the purified protease.
Positive controls were set up similarly as described for test controls, except that solvent was added in substitution for the protease inactivator (in a volume equal to the […] volume addition). All of the protease inactivators could be dissolved in dimethylsulfoxide (DMSO), and therefore, this was the solvent of choice. Negative controls were set up by adding the protease inactivator and the cocktail substrates in a tube, without the protease. All potential non-proteolytic induced liberation of AFC was therefore controlled for in this tube (a feature which also insured stability of the AFC substrates, since these substrates will freely liberate AFC when unstable).
All controls were set up in triplicate, and experiments repeated a minimum of five times. The assays were incubated at 37°C, overnight. Percent inhibition was calculated as: % Inhibition = ((AFC positive for ʺSIʺ-AFC negative for ʺSIʺ)-(AFC test-AFC negative for ʺSIʺ))/(AFC positive for ʺSIʺ-AFC negative for ʺSIʺ) × 100 [formula]
Because of this, a dilution study was required in order to determine a viable ranking. Thus, the concentration of each of the protease inactivators was lowered with a dose response setup until the most efficacious concentration for 100% inhibition (EC100) could be determined. […] The final result of the assay was a ranked candidate list of protease inactivators. A lower EC100 was attributable to a higher ranking and vice-versa.
In order to determine Ki, all of the high Vmax cocktail substrates were employed for Ki determination (since Ki of the inhibitor for the enzyme is the same regardless of the substrate). To insure the highest accuracy, Ki was to be determined upon a minimum of at least three of the high Kcat substrates. Nonlinear fitting and the Dixon plot were both employed to determine Ki of the top ranked protease inactivators. A further plot was constructed using either Eadie Hofstee as well as Hanes to determine the mode of inhibition. These methods were used in order to determine the type of inhibition.

Taenia solium crude mix = experiment: Competitor assay of vehicles against high Vmax substrate cocktails (Step III), crude mix; type: biochemical
Procedure: Step III for a crude mix proceeds it would for a purified protease, except that Vm is used instead of kcat.
as §1, §2
One of the most intriguing findings in this experiment was that a highly similar inhibition pattern for the competitor assay was noted when the crude mix was employed as the source of the target protease. Although there were some variations in the effects of inhibitor dilution, the most highly ranked vehicles remained inhibitory consistently in comparison to the profile with the target protease. The relative profile and composition of the top tiers of vehicles was identical. Z-LLL-AFC, Z-LLY-AFC, Mu-LY-AFC, Boc-VPR-AFC, Z-SY-AFC, Z-RR-AFC, Z-FLF-AFC, Z-LGR-AFC consistently presented as the top eight vehicles (Fig. 5b), respectively, based upon their V values (Table 2). […] It was notable that the three vehicles had very similar V values. […] As was mentioned, this vehicle along with Z-LLL-AFC and Z-LLY-AFC, were consistently the most inhibitory vehicles. The V values of the most inhibitory vehicle series are shown below in Table 2. Again, a clear break between the first and second tier vehicles could be noted with the V value. Table 2. Vehicles and V value rankings.

Taenia crassiceps cysts = experiment: Short-term prophylactic protection of BALB/c mice from cysticercosis infection; type: in vivo; settings: pre-injected two days, 10 T. crassiceps cysts/mouse, dosed daily for four weeks, cysts counted after one month, versus untreated controls

Compound: N[C@@H](CCC(=O)O)C(=O)N[C@@H](Cc1ccc(O)cc1)C(=O)Nc1ccc2c(C(F)(F)F)cc(=O)oc2c1 [EY-AFC, reference compound] (H-Glu-Tyr-{AFC})
- cleavage of AFC-linked substrate (Vmax) [1]: not cleaved

Compound: COC(=O)CCC(=O)N[C@@H](Cc1ccccc1)C(=O)N[C@@H](CC(C)C)C(=O)N[C@@H](Cc1ccccc1)C(=O)Nc1ccc2c(C(F)(F)F)cc(=O)oc2c1 [MeoSuc-FLF-AFC, reference compound] (MeOSuc-Phe-Leu-Phe-{AFC})
- cleavage of AFC-linked substrate (Vmax) [1]: not cleaved

Compound: CC(C)C[C@H](NC(=O)OCc1ccccc1)C(=O)NCC(=O)N[C@@H](CCCNC(=N)N)C(=O)Nc1ccc2c(C(F)(F)F)cc(=O)oc2c1 [Z-LGR-AFC, Z-Leu-Gly-Arg-AFC] (Cbz-Leu-Gly-Arg-{AFC})
- cleavage of AFC-linked substrate (Vmax) [1]: noncleavable
- inhibition in the presence of the 1.4% cocktail ([2]; vehicle 8X10^-6M): greater than 20%
- inhibition with the final cocktail (7.4%) [2]: less than 20%

Compound: CC(C)C[C@@H](/C=C/S(C)(=O)=O)NC(=O)[C@H](CC(C)C)NC(=O)[C@H](CC(C)C)NC(=O)OCc1ccccc1 [Z-LLL-VS, Z-Leu-Leu-Leu-vinylsulfone]
- ranking of protease inactivators by EC100 ([3]; dilution study, nanomolar levels): top inhibitors

Compound: CC(C)C[C@H](NC(=O)OCc1ccccc1)C(=O)N[C@@H](CCCNC(=N)N)C(=O)N[C@@H](CCCNC(=N)N)C(=O)Nc1ccc2c(C(F)(F)F)cc(=O)oc2c1 [Z-LRR-AFC] (Cbz-Leu-Arg-Arg-{AFC})
- inhibition in the presence of the 1.4% cocktail ([2]; vehicle 8X10^-6M): greater than 20%

Compound: N=C(N)NCCC[C@H](NC(=O)OCc1ccccc1)C(=O)N[C@@H](CCCNC(=N)N)C(=O)Nc1ccc2c(C(F)(F)F)cc(=O)oc2c1 [Z-RR-AFC] (Cbz-Arg-Arg-{AFC})
- inhibition with the final cocktail (7.4%) [2]: less than 20%
- V Value ([2]; V = P * M, P = inhibition with first (1.4%) cocktail, M = inhibition with last (7.4%) cocktail, vehicle 8X10^-6M, each cocktail substrate 1X10^-6 M): 0.09
- Tier (Taenia solium crude mix): 2 (The second tier was composed of those vehicles, which produced inhibition between 20-50% inhibition when in the presence of the 1.4% cocktail)
- V Value (Taenia solium crude mix; V = P * M): 0.09

Compound: Leu-Phe-Ketoamide-Pyridyl [K-Pyr, reference compound]
- % Inhibition of T. solium CP in vitro ([3]; in vitro, concentration not stated in Table 4): 80%
- % Prophylactic protection of BALB/c mice (Taenia crassiceps cysts): 40%
